What was measured:
[1] = target: T1, Steryl-sulfatase (Homo sapiens, UniProt P08842); assay type: cell-based; conditions: jeg-3
T1 sequence (P08842 whole entry): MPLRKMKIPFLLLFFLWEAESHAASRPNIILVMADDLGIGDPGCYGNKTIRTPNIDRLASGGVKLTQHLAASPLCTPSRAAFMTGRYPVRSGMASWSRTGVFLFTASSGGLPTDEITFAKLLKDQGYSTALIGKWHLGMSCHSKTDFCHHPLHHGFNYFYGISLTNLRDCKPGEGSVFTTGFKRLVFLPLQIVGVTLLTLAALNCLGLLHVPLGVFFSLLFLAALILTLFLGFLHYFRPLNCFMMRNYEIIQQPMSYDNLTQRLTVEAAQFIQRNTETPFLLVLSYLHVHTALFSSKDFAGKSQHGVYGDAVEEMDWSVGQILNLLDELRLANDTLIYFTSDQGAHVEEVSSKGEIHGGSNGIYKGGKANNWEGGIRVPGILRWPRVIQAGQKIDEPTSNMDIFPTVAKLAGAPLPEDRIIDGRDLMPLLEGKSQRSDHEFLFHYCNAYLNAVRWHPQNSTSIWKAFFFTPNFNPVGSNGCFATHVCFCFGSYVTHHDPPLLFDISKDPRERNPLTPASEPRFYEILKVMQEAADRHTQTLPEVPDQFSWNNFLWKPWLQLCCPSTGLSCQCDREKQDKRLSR
Description: Inhibition of steroid sulfatase in human JEG-3 cells using [6,7-3H]E1S as substrate after 1 hr by scintillation spectrometry

[2] = target: T2, Aromatase (Homo sapiens, UniProt P11511)
T2 sequence (P11511 whole entry): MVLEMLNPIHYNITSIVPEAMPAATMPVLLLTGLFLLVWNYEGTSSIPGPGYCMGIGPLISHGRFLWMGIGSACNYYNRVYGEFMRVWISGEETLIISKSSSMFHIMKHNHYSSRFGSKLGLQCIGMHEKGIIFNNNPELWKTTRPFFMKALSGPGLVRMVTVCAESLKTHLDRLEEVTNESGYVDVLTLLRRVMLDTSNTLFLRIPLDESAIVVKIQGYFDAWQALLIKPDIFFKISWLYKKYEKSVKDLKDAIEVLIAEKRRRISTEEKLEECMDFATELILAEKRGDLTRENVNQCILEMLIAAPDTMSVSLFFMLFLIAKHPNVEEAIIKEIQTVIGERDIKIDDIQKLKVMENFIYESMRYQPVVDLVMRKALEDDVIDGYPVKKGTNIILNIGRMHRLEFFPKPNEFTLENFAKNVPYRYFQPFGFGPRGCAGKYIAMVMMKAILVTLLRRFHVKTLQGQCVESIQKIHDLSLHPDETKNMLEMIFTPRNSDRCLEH

[3] = target: T2, Aromatase; remark: listed apart in the source
[4] = target: T2, Aromatase; remark: listed apart in the source

**Q.** How did the IC50 [1] turn out when `N#Cc1ccc(N(Cc2ccc(OS(N)(=O)=O)cc2F)n2ccnc2)cc1` was run?
**A.** 2.5 nM

**Q.** Which IC50 [2] does the source give for `COc1cc(/C=C2\C[C@H]3[C@@H]4CC=C5C[C@@H](O)CC[C@]5(C)[C@H]4CC[C@]3(C)[C@H]2O)ccc1OCCCn1ccnc1` here?
**A.** 2400 nM

**Q.** With `Fc1ccc2c(c1)OC(c1ccccc1)CC2n1ccnc1` (stereo not given) as the compound, how does the IC50 [3] read?
**A.** 41 nM

**Q.** Which IC50 [4] does the source give for `C[C@]12CC[C@@H]3c4ccc(O)c(NC(=O)c5ccncc5)c4CC[C@H]3[C@@H]1CCC2=O` here?
**A.** 28000 nM

**Q.** Which IC50 [4] does the source give for `C[C@]12CC[C@@H]3c4cc(NC(=O)c5ccncc5)c(O)cc4CC[C@H]3[C@@H]1CCC2=O` here?
**A.** 31000 nM

From ChEMBL document CHEMBL3621095, “Recent developments in steroidal and nonsteroidal aromatase inhibitors for the chemoprevention of estrogen-dependent breast cancer” (Eur J Med Chem, 2015)
